The results in this text go back to patent US12077555B2, “STAT degraders and uses thereof” (Kymera Therapeutics, Inc., priority 2019, dated 2024).

A value given as a limit tells only on which side of the number the result lay.

STAT3, sequence (P40763 whole entry): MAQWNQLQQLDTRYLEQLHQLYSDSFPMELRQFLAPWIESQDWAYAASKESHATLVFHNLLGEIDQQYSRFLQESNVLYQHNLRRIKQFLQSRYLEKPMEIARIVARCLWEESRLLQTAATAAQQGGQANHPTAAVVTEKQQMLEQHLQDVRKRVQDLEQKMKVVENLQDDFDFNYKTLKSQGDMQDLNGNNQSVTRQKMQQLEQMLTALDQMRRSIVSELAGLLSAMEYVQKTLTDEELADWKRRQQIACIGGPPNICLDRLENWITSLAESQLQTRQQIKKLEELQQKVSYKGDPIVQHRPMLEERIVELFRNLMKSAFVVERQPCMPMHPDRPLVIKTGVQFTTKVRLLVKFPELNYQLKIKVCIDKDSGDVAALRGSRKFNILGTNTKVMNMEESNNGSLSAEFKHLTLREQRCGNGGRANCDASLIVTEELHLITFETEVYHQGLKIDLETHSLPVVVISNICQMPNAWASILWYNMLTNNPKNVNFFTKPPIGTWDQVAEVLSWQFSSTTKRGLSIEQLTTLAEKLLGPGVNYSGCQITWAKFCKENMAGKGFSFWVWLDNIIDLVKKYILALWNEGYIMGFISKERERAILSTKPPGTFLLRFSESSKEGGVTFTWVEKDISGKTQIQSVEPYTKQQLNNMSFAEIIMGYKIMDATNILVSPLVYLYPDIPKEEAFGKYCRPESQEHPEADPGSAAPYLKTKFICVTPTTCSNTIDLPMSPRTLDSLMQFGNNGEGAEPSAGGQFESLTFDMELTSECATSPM

In this experiment the target is STAT3 (Homo sapiens, UniProt P40763). In words: STAT3 HiBiT degradation assay in transfected A549 cells. On the set-up: expressed in transfected cells; host or cells: A549. Conditions: A549, 24 h; read-out: STAT3 HiBiT A549 degradation 24 h: Average external-Abs DC50. Format: cell-based. On the procedure:
Compound preparation and Cell seeding: The transfected A549 cells were harvested from dish into cell culture medium and cell numbers counted. Cells were diluted with culture medium to the desired density and 30 μL of cell suspension (about 2000 cells/well) were added into each well of a 384-well cell culture plate as designated and transferred into 37° C. 5% CO2 incubator for 24 h. Compounds were dissolved to 10 mM stock solution and 12 μL of the stock solution was transferred to a 384 LDV-plate. 3 fold, 10-point dilution was performed by transferring 4 μL compound into 8 μL DMSO using a TECAN (EVO200) liquid handler. 30 μL of diluted compound from compound source plate was transferred into the cell plate as designated by using Echo550 and transferred into 37° C. 5% CO2 incubator for 24 h.
Detection: Plates were removed from incubators and equilibrated at room temperature for 15 minutes. Nano-Glo Hibit Lytic Detection reagent (Promega Cat #N3040) was thawed and equilibrated to room temperature before the experiment. 30 μL of Nano-Glo Hibit Lytic Detection reagent was added into each well to be detected. The plates were held at room temperature for 10 min followed by reading on EnSpire.
Data analysis: The remaining activity was calculated following the formula: Remaining Activity (%)=100%×(Lumsample−LumNC)/(LumPC−LumNC). Calculate the IC50 by fitting the curve using Xlfit (v5.3.1.3), equation 201: fit=(A+((B−A)/(1+((x/C)^D)))); A: Bottom; B: Top; C: IC50; and D: Slope.
The letter codes for STAT3 DC50 include: A (<0.01 μM), B (0.01-0.1 μM), C (0.1-1.0 μM), and D (>1.0 μM).
Background: The HiBiT peptide binds its large partner to form an active luciferase.
What is called DC50 is the concentration giving 50% degradation. Turning to `Cc1ncsc1-c1ccc([C@H](C)NC(=O)[C@@H]2C[C@@H](O)CN2C(=O)[C@@H](NC(=O)CCc2cccc(OC[C@H](CCC(N)=O)NC(=O)[C@@H]3Cc4cccc5c4N3C[C@@H](CC(=O)C3Cc4cc(C(=O)P(=O)(O)O)ccc4N3)CC5)c2)C(C)(C)C)cc1` (stereo partly drawn) [Compound I-260, diammonium 2-[[(2S,11S)-2-[[(2S)-4-carbamoyl-1-[3-(2-[[(2S)-1-[(2S,4R)-4-hydroxy-2-[[(1S)-1-[4-(4-methyl-1,3-thiazol-5-yl)phenyl]ethyl]carbamoyl]pyrrolidin-1-yl]-3,3-dimethyl-1-oxobutan-2-yl]carbamoyl]ethyl)phenoxy]butan-2-yl]carbamoyl]-12-oxo-1-azatricyclo[6.4.1.0^[4,13]]trideca-4(13),5,7-trien-11-yl]carbamoyl]-1H-indole-5-carbonylphosphonate], the half-maximal degradation concentration (DC50) was more than 1000 nM.

`Cn1c(=O)n(C2CCC(=O)NC2=O)c2ccc(N3CCN(CCCC(=O)N4CC[C@H]5CC[C@@H](C(=O)N[C@@H](CCC(N)=O)C(=O)NC(c6ccccc6)c6ccccc6)N5C(=O)[C@@H](NC(=O)c5cc6cc(C(=O)P(=O)(O)O)ccc6[nH]5)C4)CC3)cc21` (stereo partly drawn) [Compound I-168, 2-[[(5S,8S,10aR)-8-[[(1S)-3-carbamoyl-1-(diphenylmethylcarbamoyl)propyl]carbamoyl]-3-(4-[4-[1-(2,6-dioxopiperidin-3-yl)-3-methyl-2-oxo-1,3-benzodiazol-5-yl]piperazin-1-yl]butanoyl)-6-oxo-octahydropyrrolo[1,2-a][1,5]diazocin-5-yl]carbamoyl]-1H-indole-5-carbonylphosphonic acid]: the DC50 was more than 1000 nM.

Consider `CC(C)c1ccc(CNC(=O)[C@H](CCC(N)=O)NC(=O)[C@@H]2Cc3cc(CCCCCCc4ccc5c(c4)n(C)c(=O)n5C4CCC(=O)NC4=O)cc4c3N2C(=O)[C@@H](NC(=O)c2cc3cc(C(=O)P(=O)(O)O)ccc3[nH]2)CC4)cc1` (stereo partly drawn) [Compound I-232, 2-[[(2S,11S)-2-[[(1S)-3-carbamoyl-1-[[(4-isopropylphenyl)methyl]carbamoyl]propyl]carbamoyl]-6-[6-[1-(2,6-dioxopiperidin-3-yl)-3-methyl-2-oxo-1,3-benzodiazol-5-yl]hexyl]-12-oxo-1-azatricyclo[6.4.1.0^[4,13]]trideca-4(13),5,7-trien-11-yl]carbamoyl]-1H-indole-5-carbonylphosphonic acid], for which the DC50 is 10 to 100 nM.

As to `CC(=O)N1CC[C@H]2CC[C@@H](C(=O)N[C@@H](CCC(N)=O)COc3cccc(CCCCC(=O)N[C@H](C(=O)N4C[C@H](O)C[C@H]4C(=O)N[C@@H](C)c4ccc(-c5scnc5C)cc4)C(C)(C)C)c3F)N2C(=O)[C@@H](NC(=O)c2cc3cc(C(=O)P(=O)(O)O)ccc3[nH]2)C1` [Compound I-263, 2-[[(5S,8S,10aR)-3-acetyl-8-[[(2S)-4-carbamoyl-1-[2-fluoro-3-(4-[[(2S)-1-[(2S,4R)-4-hydroxy-2-[[(1S)-1-[4-(4-methyl-1,3-thiazol-5-yl)phenyl]ethyl]carbamoyl]pyrrolidin-1-yl]-3,3-dimethyl-1-oxobutan-2-yl]carbamoyl]butyl)phenoxy]butan-2-yl]carbamoyl]-6-oxo-octahydropyrrolo[1,2-a][1,5]diazocin-5-yl]carbamoyl]-1H-indole-5-carbonylphosphonic acid], the DC50 is less than 10 nM.

As for `Cc1cc(CCCCCC(=O)N[C@H](C(=O)N2C[C@H](O)C[C@H]2C(=O)N[C@@H](C)c2ccc(-c3scnc3C)cc2)C(C)(C)C)c(F)c(OC[C@H](CCC(N)=O)NC(=O)[C@@H]2Cc3cccc4c3N2C(=O)[C@@H](NC(=O)c2cc3cc(C(=O)P(=O)(O)O)ccc3[nH]2)CC4)c1` [Compound I-266, 2-[[(2S,11S)-2-[[(2S)-4-carbamoyl-1-[2-fluoro-3-(5-[[(2S)-1-[(2S,4R)-4-hydroxy-2-[[(1S)-1-[4-(4-methyl-1,3-thiazol-5-yl)phenyl]ethyl]carbamoyl]pyrrolidin-1-yl]-3,3-dimethyl-1-oxobutan-2-yl]carbamoyl]pentyl)-5-methylphenoxy]butan-2-yl]carbamoyl]-12-oxo-1-azatricyclo[6.4.1.[4,13]]trideca-4(13),5,7-trien-11-yl]carbamoyl]-1H-indole-5-carbonylphosphonic acid], the DC50 is less than 10 nM.

Consider `Cc1ncsc1-c1ccc([C@H](C)NC(=O)[C@@H]2C[C@@H](O)CN2C(=O)[C@@H](NC(=O)CCCCCc2cccc(NC[C@H](CCC(N)=O)NC(=O)[C@@H]3Cc4cccc5c4N3C(=O)[C@@H](NC(=O)c3cc4cc(C(=O)P(=O)(O)O)ccc4[nH]3)CC5)c2F)C(C)(C)C)cc1` [Compound I-265, diammonium 2-[[(2S,11S)-2-[(4-carbamoyl-1-[[2-fluoro-3-(5-[[(2S)-1-[(2S,4R)-4-hydroxy-2-[[(1S)-1-[4-(4-methyl-1,3-thiazol-5-yl)phenyl]ethyl]carbamoyl]pyrrolidin-1-yl]-3,3-dimethyl-1-oxobutan-2-yl]carbamoyl]pentyl)phenyl]amino]butan-2-yl)carbamoyl]-12-oxo-1-azatricyclo[6.4.1.0^[4,13]]trideca-4(13),5,7-trien-11-yl]carbamoyl]-1H-indole-5-carbonylphosphonate], for which the 50% degradation concentration (DC50) was in the range of 10 to 100 nM.

In the case of `Cn1c(=O)n(C2CCC(=O)NC2=O)c2ccc(N3CC(CCCC(=O)N4CC[C@H]5CC[C@@H](C(=O)N[C@@H](CCC(N)=O)C(=O)NC(c6ccccc6)c6ccccc6)N5C(=O)[C@@H](NC(=O)c5cc6cc(C(=O)P(=O)(O)O)ccc6[nH]5)C4)C3)cc21` (stereo partly drawn) [Compound I-135, 2-[[(5S,8S,10aR)-8-[[(1S)-3-carbamoyl-1-(diphenylmethylcarbamoyl)propyl]carbamoyl]-3-(4-[1-[1-(2,6-dioxopiperidin-3-yl)-3-methyl-2-oxo-1,3-benzodiazol-5-yl]azetidin-3-yl]butanoyl)-6-oxo-octahydropyrrolo[1,2-a][1,5]diazocin-5-yl]carbamoyl]-1H-indole-5-carbonylphosphonic acid], the 50% degradation concentration (DC50) was 100 to 1000 nM.

In the case of `Cc1ncsc1-c1ccc([C@H](C)NC(=O)[C@@H]2C[C@@H](O)CN2C(=O)[C@@H](NC(=O)CCCCCc2cc(OC[C@@H](NC(=O)[C@@H]3Cc4cccc5c4N3C(=O)[C@@H](NC(=O)c3cc4cc(C(=O)P(=O)(O)O)ccc4[nH]3)CC5)C(N)=O)ccc2Cl)C(C)(C)C)cc1` [Compound I-199, diammonium 2-[[(2S,11S)-2-[[(2S)-4-carbamoyl-1-[4-chloro-3-(5-[[(2S)-1-[(2S,4R)-4-hydroxy-2-[[(1S)-1-[4-(4-methyl-1,3-thiazol-5-yl)phenyl]ethyl]carbamoyl]pyrrolidin-1-yl]-3,3-dimethyl-1-oxobutan-2-yl]carbamoyl]pentyl)phenoxy]butan-2-yl]carbamoyl]-12-oxo-1-azatricyclo[6.4.1.0^[4,13]]trideca-4(13),5,7-trien-11-yl]carbamoyl]-1H-indole-5-carbonylphosphonate], the DC50 is 10 to 100 nM.

Take `Cc1ncsc1-c1ccc([C@H](C)NC(=O)[C@@H]2C[C@@H](O)CN2C(=O)[C@@H](NC(=O)CCCCCc2cc(Cl)cc(NC(=O)[C@H](CCC(N)=O)NC(=O)[C@@H]3Cc4cccc5c4N3C(=O)[C@@H](NC(=O)c3cc4cc(C(=O)P(=O)(O)O)ccc4[nH]3)CC5)c2)C(C)(C)C)cc1` [Compound I-257, 2-[[(2S,11S)-2-[[(1S)-3-carbamoyl-1-[[3-chloro-5-(5[[(2S)-1-[(2S,4R)-4-hydroxy-2-[[(1S)-1-[4-(4-methyl-1,3-thiazol-5-yl)phenyl]ethyl]carbamoyl]pyrrolidin-1-yl]-3,3-dimethyl-1-oxobutan-2-yl]carbamoyl]pentyl)phenyl]carbamoyl]propyl]carbamoyl]-12-oxo-1-azatricyclo[6.4.1.0^[4,13]]trideca-4(13),5,7-trien-11-yl]carbamoyl]-1H-indole-5-carbonylphosphonic acid]: the DC50 lay in the range of 10 to 100 nM.

Turning to `C/C(=C\C(=O)N[C@H]1CN(C(=O)CCCCCCc2ccc3c(c2)n(C)c(=O)n3C2CCC(=O)NC2=O)CC[C@H]2CC[C@@H](C(=O)N[C@@H](CCC(N)=O)C(=O)NC(c3ccccc3)c3ccccc3)N2C1=O)c1cccc(C(F)(F)P(=O)(O)O)c1` (stereo partly drawn) [Compound I-143, [3-[(1E)-1-[[(8S,10aR)-8-[[(1S)-3-carbamoyl-1-(diphenylmethylcarbamoyl)propyl]carbamoyl]-3-[7-[1-(2,6-dioxopiperidin-3-yl)-3-methyl-2-oxo-1,3-benzodiazol-5-yl]heptanoyl]-6-oxo-octahydropyrrolo[1,2-a][1,5]diazocin-5-yl]carbamoyl]prop-1-en-2-yl]phenyl]difluoromethylphosphonic acid], the DC50 is more than 1000 nM.
